This is an account of results in US20220089733A1, “NOVEL APPROACH FOR TREATMENT OF CANCER USING IMMUNOMODULATION” (BioXcel Therapeutics, Inc., priority 2018, published 2022).

For data set [1], the system named is melanoma. Conditions: melanoma patients; cited from earlier work.
The conditions of data set [2]: in vivo; cited from earlier work.
The target of data set [3] is CYP3A4 (Homo sapiens, UniProt P08684).
The target of data set [4] is T1, CYP2C8 (Homo sapiens, UniProt P10632).
T1 sequence (P10632 1-490): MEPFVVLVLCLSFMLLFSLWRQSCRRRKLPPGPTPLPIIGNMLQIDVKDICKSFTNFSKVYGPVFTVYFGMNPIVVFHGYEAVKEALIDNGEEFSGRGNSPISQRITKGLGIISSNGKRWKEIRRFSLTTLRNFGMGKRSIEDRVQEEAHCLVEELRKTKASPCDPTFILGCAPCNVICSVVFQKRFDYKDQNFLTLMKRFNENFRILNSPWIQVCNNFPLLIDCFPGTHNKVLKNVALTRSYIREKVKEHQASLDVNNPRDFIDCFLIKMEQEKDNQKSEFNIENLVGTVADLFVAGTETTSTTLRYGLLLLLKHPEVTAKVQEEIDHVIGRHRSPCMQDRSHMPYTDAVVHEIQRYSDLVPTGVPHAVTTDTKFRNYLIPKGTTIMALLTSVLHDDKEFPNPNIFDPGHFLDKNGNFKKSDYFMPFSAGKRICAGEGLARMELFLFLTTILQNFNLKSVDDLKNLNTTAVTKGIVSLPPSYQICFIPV

Data set [5] has as its target CYP1A2 (Homo sapiens, UniProt P05177). Conditions: human liver CYP isoenzymes; preclinical studies.
For data set [6], the system named is CYP1A2.
The target in data set [7] is CYP2C19 (Homo sapiens, UniProt P33261).
Data set [8] concerns the target CYP2D6 (Homo sapiens, UniProt P10635).
Data set [9] concerns the target CYP2C9 (Homo sapiens, UniProt P11712).
The subject of data set [10] is CYP3A4.

CYP2C19, sequence (P33261 whole entry): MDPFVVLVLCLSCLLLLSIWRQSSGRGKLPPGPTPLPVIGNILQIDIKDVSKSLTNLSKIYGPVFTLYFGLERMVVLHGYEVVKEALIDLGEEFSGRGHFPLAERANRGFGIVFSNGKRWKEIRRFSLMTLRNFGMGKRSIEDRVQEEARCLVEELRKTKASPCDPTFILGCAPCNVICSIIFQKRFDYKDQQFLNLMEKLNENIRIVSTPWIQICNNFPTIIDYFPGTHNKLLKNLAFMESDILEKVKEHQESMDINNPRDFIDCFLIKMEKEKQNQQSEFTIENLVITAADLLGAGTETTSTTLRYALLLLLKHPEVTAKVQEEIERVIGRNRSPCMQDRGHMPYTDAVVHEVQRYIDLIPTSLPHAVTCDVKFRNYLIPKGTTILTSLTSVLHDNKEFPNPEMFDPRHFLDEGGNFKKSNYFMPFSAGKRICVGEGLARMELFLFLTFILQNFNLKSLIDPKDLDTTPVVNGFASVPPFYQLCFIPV
CYP2D6, sequence (P10635 whole entry): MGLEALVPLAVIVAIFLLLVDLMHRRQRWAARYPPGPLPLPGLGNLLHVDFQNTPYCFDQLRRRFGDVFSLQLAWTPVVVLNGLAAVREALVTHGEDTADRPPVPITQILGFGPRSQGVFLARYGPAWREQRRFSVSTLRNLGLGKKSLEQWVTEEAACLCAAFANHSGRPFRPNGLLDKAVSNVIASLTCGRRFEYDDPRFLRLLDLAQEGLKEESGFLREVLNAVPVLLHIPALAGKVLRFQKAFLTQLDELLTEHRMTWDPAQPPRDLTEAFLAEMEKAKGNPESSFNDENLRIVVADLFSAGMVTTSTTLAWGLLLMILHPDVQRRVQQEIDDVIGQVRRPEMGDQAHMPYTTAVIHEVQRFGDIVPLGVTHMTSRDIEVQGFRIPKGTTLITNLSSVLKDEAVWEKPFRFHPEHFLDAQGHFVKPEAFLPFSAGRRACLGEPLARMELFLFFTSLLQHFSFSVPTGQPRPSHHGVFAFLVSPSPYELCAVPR
CYP2C9, sequence (P11712 whole entry): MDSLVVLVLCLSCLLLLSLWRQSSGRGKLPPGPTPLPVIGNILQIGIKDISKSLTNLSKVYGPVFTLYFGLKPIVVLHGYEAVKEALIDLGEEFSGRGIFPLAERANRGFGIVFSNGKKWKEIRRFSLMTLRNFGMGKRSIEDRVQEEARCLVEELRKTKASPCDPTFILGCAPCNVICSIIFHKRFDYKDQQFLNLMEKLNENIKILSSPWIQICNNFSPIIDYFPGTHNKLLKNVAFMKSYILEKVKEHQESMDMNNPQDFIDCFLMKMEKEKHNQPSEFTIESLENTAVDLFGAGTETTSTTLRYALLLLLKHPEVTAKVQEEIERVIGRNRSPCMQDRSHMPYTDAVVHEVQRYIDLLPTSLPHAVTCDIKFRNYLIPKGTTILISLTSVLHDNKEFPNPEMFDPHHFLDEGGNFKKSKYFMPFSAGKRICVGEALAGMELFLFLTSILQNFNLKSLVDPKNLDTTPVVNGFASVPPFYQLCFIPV
CYP3A4 (Homo sapiens, UniProt P08684), sequence (P08684 whole entry): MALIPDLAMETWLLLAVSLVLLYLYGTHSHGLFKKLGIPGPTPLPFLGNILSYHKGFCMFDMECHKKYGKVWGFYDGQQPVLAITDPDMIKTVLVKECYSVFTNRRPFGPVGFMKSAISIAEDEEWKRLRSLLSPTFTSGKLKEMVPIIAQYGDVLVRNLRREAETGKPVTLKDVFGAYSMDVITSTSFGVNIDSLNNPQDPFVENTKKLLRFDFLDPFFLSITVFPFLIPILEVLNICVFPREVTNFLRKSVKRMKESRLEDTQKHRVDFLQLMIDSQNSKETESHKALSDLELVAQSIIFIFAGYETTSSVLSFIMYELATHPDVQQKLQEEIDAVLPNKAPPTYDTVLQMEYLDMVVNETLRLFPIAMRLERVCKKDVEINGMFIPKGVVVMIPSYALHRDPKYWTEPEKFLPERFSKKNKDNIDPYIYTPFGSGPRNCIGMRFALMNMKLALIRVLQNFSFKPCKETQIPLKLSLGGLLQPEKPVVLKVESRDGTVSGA
CYP1A2 (Homo sapiens, UniProt P05177), sequence (P05177 whole entry): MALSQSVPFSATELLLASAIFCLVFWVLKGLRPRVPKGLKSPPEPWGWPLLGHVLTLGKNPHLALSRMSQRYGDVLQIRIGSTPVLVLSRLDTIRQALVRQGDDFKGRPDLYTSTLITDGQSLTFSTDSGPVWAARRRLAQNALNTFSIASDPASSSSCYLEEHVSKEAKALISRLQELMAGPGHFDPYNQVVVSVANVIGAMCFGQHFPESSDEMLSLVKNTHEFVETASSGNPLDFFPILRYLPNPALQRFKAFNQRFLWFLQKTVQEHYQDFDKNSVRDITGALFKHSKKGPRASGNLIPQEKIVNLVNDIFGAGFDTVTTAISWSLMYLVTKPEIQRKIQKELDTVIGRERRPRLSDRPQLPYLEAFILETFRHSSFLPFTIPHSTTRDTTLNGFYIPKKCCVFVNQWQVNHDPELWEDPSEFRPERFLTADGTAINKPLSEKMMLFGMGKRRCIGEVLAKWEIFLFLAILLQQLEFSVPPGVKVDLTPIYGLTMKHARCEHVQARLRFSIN

For “Nivolumab: PD-1 antagonist antibody, checkpoint inhibitor”, in [1], the Response rate was 32%.
With “Ipilimumab: CTLA-4 antagonist antibody, checkpoint inhibitor”, in data set [1], the Response rate was 11%.
With `CC(C)[C@H](N)C(=O)N1CCC[C@H]1B(O)O` [Talabostat, [(2R)-1-[(2S)-2-amino-3-methylbutanoyl]pyrrolidin-2-yl]boronic acid], the “Most common / most frequently observed adverse events” value in data set [2] was “edema/peripheral swelling, hypotension, hypovolemia, and dizziness”.
With Talabostat mesylate, in data set [2], the “Most common / most frequently observed adverse events” value was “edema/peripheral swelling, hypotension, dizziness, and hypovolemia”. In data set [3], the “Potential to inhibit CYP3A4” value was “low potential”. Also, the “Potential to inhibit CYP2C8” value in data set [4] is given as “low potential”. Also, the “Potential to inhibit CYP1A2” value in data set [5] is reported as “low potential”. Moreover, in [6], the “Induction of CYP1A2” value is on record as “did not induce”. In data set [7], the “Potential to inhibit CYP2C19” value is given as “low potential”. Further, the “Potential to inhibit CYP2D6” value in [8] is on record as “low potential”. Moreover, in data set [9], the “Potential to inhibit CYP2C9” value is on record as “low potential”. In data set [10], the “Induction of CYP3A4” value is given as “did not induce”.
